Source: patent US10947271B2, “Antibacterial agents” (THE UNIVERSITY OF QUEENSLAND, priority 2014, dated 2021)

Key:
[1] = tested on: Staphylococcus aureus MRSA ATCC 43300; assay: MIC assay, S. aureus MRSA ATCC 43300; assay type: cell-based; details: 24 h incubation, visual reading
How it was run: (§1)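 Twofold broth microdilution in Mueller Hinton broth; compounds tested from 8 μg/ml to 0.003 μg/ml. Mid-log cultures were inoculated at 5×10e5 CFU/mL and incubated 24 h at 37° C. MIC was the lowest concentration with no visible growth.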

[2] = tested on: Streptococcus pneumoniae MDR ATCC 700677; assay: MIC assay, S. pneumoniae MDR ATCC 700677; assay type: cell-based; details: 24 h incubation, visual reading
How it was run: as §1

[3] = tested on: Enterococcus faecium MDR Van A ATCC 51559; assay: MIC assay, E. faecium MDR Van A ATCC 51559; assay type: cell-based; details: 24 h incubation, visual reading
How it was run: as §1

[4] = Stability of compounds in human plasma; details: 50% human plasma/PBS pH 7.4, 37° C.
Experimental: Briefly test compounds (20 μM) were prepared from a 1 mM stock solution. The human plasma sample (200 μl) was diluted with 160 μl phosphate-buffer saline (PBS, pH 7.4) to a concentration of 50% v/v before use. Solutions were then vortexed and placed on a 37° C. shaker and shaken gently for 10 minutes. 40 μl of the test compounds were then added to the plasma sample and vortexed. For the reaction time t=0 hour, 50 μl of sample was immediately transferred into an eppendorf tube and quenched with 150 μl cold acetonitrile. The remaining plasma solution was incubated and shaken at 37° C. Other samples were collected at time points of 0, 1, 3, 6 and 24 hours whereby 50 μl aliquots were removed and quenched with 150 μl cold acetonitrile. All samples were placed in a 4° C. fridge for 10 minutes then centrifuged at 3000 rpm for 15 minutes. The supernatant (100 μl) was transferred to a glass vial insert for LCMS analysis. The percentage of test compounds remaining at the individual time points relative to sample at time point 0 hour were reported.
Plasma: Human Plasma (Pooled Normal Human Plasma Heparin Anticoagulant 50 mL (IPLA-2 N-04 lot IR09-1001, originally from Innovative Research and imported by BioCore).
All compounds in 100% water (40 μL in 400 μL assay volume equivalent […])
Compounds: 40 μL of the vancomycin derivative solution was added to 160 μL of PBS (pH 7.4) respectively in an Eppendorf tube. 600 μL of cold acetonitrile was added, the tube vortexed and transferred to a glass vial for LC-MS analysis.
Eucatropine: 200 μL of plasma and 190 μL of buffer were vortexed, shaken at 37° C. for 10 minutes. 10 μL of eucatropine solution was then added and the tube vortexed. A 50 μL aliquot was immediately transferred to an Eppendorf tube, 150 μL of cold acetonitrile added and the tube transferred to a 4° C. fridge for 10 minutes. The remaining plasma solution was then transferred to the incubator and shaken at 37° C. The tube was retrieved from the fridge, centrifuged at 3000 rpm for 15 min and 100 μL of supernatant transferred to a glass vial insert for LC-MS analysis. 50 μL aliquots were processed as above at 1, […], 3, 6 and 24 hours and 5 μL was injected into triple quad MS system for analysis. Vancomycin derivatives: 200 μL of plasma and 160 μL of buffer were vortexed and shaken at 37° C. for 10 minutes. 40 μL of compound was then added and the sample was processed as above.

MRSA (Strain ATCC 43300) = assay: Murine thigh infection model (MRSA); assay type: in vivo, Staphylococcus aureus; details: neutropenic CD1 mice
[5] = single subcutaneous dose 25 mg/kg

| SMILES | Minimum Inhibitory Concentration (MIC) Staph. aureus ATCC43300 [1] | Minimum Inhibitory Concentration (MIC) S. pneumoniae ATCC 700677 [2] | Minimum Inhibitory Concentration (MIC) E. faecium ATCC51559 [3] | % compound remaining after incubation in 50% human plasma ([4]; 0 h (reference time point)) | % compound remaining after incubation in 50% human plasma ([4]; 1 h) | % compound remaining after incubation in 50% human plasma ([4]; 3 h) | % compound remaining after incubation in 50% human plasma ([4]; 6 h) | % compound remaining after incubation in 50% human plasma ([4]; 24 h) | Average Reduction log Δcfu MRSA/thigh after 26 h (MRSA (Strain ATCC 43300); single subcutaneous dose 10 mg/kg) | Average Reduction log Δcfu MRSA/thigh after 26 h (MRSA (Strain ATCC 43300); [5]) | Average Reduction log Δcfu MRSA/thigh after 26 h (MRSA (Strain ATCC 43300); single subcutaneous dose 200 mg/kg) | Average Reduction log Δcfu MRSA/thigh after 26 h (MRSA (Strain ATCC 43300); single subcutaneous dose 50 mg/kg) |
| --- | --- | --- | --- | --- | --- | --- | --- | --- | --- | --- | --- | --- |
| CCCCCCCCCCC(=O)N[C@@H](CCCCN)C(=O)N[C@@H](CCCCNC(=O)[C@H]1NC(=O)[C@H]2NC(=O)[C@H](NC(=O)[C@@H]3NC(=O)[C@H](CC(N)=O)NC(=O)[C@H](NC(=O)[C@@H](CC(C)C)NC)[C@H](O)c4ccc(c(Cl)c4)Oc4cc3cc(c4O[C@@H]3O[C@H](CO)[C@@H](O)[C@H](O)[C@H]3O[C@H]3C[C@](C)(N)[C@H](O)[C@H](C)O3)Oc3ccc(cc3Cl)[C@H]2O)c2ccc(O)c(c2)-c2c(O)cc(O)cc21)C(=O)O [MCC_000080, nC10CO-K-K(Vanc)-OH] | xxx (xxx = 0.1-<1) | xxx (xxx = 0.1-<1) | x (x = >4) | 100% | 101% | 101% | 100% | 89% | xxx (xxx = 4-6) | xxxx (xxxx = >6) |  |  |
| CN[C@H](CC(C)C)C(=O)N[C@H]1C(=O)N[C@@H](CC(N)=O)C(=O)N[C@H]2C(=O)N[C@H]3C(=O)NC(C(=O)N[C@H](C(=O)O)c4cc(O)cc(O)c4-c4cc3ccc4O)[C@H](O)c3ccc(c(Cl)c3)Oc3cc2cc(c3OC2OC(CO)C(O)C(O)C2OC2CC(C)(N)C(O)C(C)O2)Oc2ccc(cc2Cl)[C@H]1O (stereo partly shown) [MCC_000095, vancomycin, reference compound] |  |  |  | 100% | 176% | 145% | 149% | 65% |  | x (x = 0-2) | xxx (xxx = 4-6) |  |
| CNC(CC(C)C)C(=O)NC1C(=O)NC(CC(N)=O)C(=O)NC2C(=O)NC3C(=O)NC(C(=O)NC(C(=O)NCCCCC(NC(=O)C(CCCCN)NC(=O)C(CCCCN)NC(=O)c4ccc(Oc5ccccc5)cc4)C(=O)O)c4cc(O)cc(O)c4-c4cc3ccc4O)C(O)c3ccc(c(Cl)c3)Oc3cc2cc(c3OC2OC(CO)C(O)C(O)C2OC2CC(C)(N)C(O)C(C)O2)Oc2ccc(cc2Cl)C1O (stereo not shown) [MCC_000214, (4-PhO-PhCO)-KK-K(Vanc)-OH] | xxx (xxx = 0.1-<1) | xxx (xxx = 0.1-<1) | x (x = >4) | 100% | 101% |  | 107% | 111% |  |  |  | xxx (xxx = 4-6) |
